This note sets out measurements from article PMC6527858, “FABP1 controls hepatic transport and biotransformation of Δ^9-THC” (Scientific Reports, 2019).

Like-named read-outs stand apart in the source and are kept apart here.

Data set [1] is described as follows: THC pharmacokinetics in wild-type and FABP1-KO mice (LC-MS/MS of brain and plasma). The following applies: THC 10 mg/kg i.p.; for AUC: 0-24 h. As for the experimental part:
The pharmacokinetics of THC were subsequently examined to determine whether FABP1 regulates THC biotransformation in vivo. Wild-type and FABP1-KO mice were administered a single dose of THC (10 mg/kg, i.p.) and blood plasma and brains were harvested at several time points during a 24-hour time course (0, 0.5, 1, 2, 3, 4, 6, 7, and 24 hours post-THC). Levels of THC and its major primary and secondary metabolites (11-OH-THC and THC-COOH) were subsequently quantified by LC-MS/MS.
Mice were administered THC (10 mg/kg, i.p.) and plasma and brain samples were collected at the following time points: 0, 0.5, 1, 2, 3, 4, 6, 7, 24 hours. Tissues were immediately placed on dry ice and stored at −80 °C until processing. The AUC from time 0 to 24 h was calculated by the trapezoidal rule.
The tissues were rapidly thawed, spiked with 25 μl deuterated internal standard solution (containing THC-d3, 11-OH-THC-d3, and THC-COOH-d3; 5 ng/mL each, in methanol) (Cerillient Corporation, Round Rock, TX, USA) and homogenized on ice in Tris, pH 8.0. Protein precipitation was performed by adding two volumes ice-cold acetonitrile drop-wise while vortexing, centrifuged at 10,000 RCF for 10 minutes at 4 °C, and stored overnight at −20 °C to allow time for complete phase separation. The organic phase was transferred to a new glass tube and dried down under a steady stream of argon gas. The dried samples were resuspended in 100 μl 1:1 acetonitrile:ddH2O and submitted to the Stony Brook Proteomics Center for LC-MS/MS quantification of THC and THC metabolites.

The target of data set [2] is T1, human FABP1 (Homo sapiens, UniProt P07148).
T1 construct: His tag (N); host or cells: BL21(DE3) Escherichia coli
T1 sequence (P07148 1-127): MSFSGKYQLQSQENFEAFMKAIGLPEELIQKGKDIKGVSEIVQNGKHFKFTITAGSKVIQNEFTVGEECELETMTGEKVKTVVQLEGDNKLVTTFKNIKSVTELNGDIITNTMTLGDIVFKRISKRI
Put plainly: DAUDA fluorescence displacement binding assay. The following applies: for maximal displacement of the fluorescent probe DAUDA: maximal effect in the tested concentration range. As for the experimental part: Human FABP1 in a pNIC28-Bsa4 vector was obtained from Addgene (plasmid #42344; Addgene, Cambridge, MA, USA). Following sequence verification the construct was transformed into BL21(DE3) Escherichia coli for expression. The recombinant FABP1 protein was purified by nickel-affinity chromatography as described previously. Residual endogenous bacterial lipids were stripped from the purified protein by incubation in a column of hydroxyalkoxypropyl-dextran (Sigma Chemical Co., St Louis, MO, USA) for 1 hour at 37 °C.
Binding assays were carried out in 96-well Costar® plates (Corning Life Science, Kennebunk, ME, USA). FABP1 (3 μM) was incubated with DAUDA (500 nM), in binding assay buffer (30 mM Tris-HCl, 100 mM NaCl, pH 7.6). Competitor test compounds (0.1–500 μM) were then introduced to the well, mixed, and the system was allowed to equilibrate for 20 minutes at 25 °C in the dark. All experimental conditions were tested in triplicate. […] Loss of fluorescence intensity was monitored with an F5 Filtermax Multi-Mode Microplate Reader (Molecular Devices, Sunnyvale, CA, USA) using excitation/emission wavelengths = 345/535 nm. Following background subtraction, raw fluorescence intensity values were normalized and fit to a one-site competition binding analysis using the Graphpad Prism software.

Data set [3] concerns the target T1, human FABP1. Briefly: DAUDA probe saturation binding to FABP1 (probe Kd determination). Particulars: FABP1 1 μM, DAUDA 0–16 μM. As for the experimental part: Recombinant human FABP1 (1 μM) was titrated with DAUDA (0–16 μM). The raw fluorescence intensity at each data point was corrected by subtracting the signal from each respective probe concentration in the absence of protein. Kd and Bmax were then calculated by fitting the titration curve to the single-site saturation binding equation [Y = Bmax*X/(Kd + X)] using the GraphPad Prism software (Prism version 7.0 for Mac OS: Graphpad software Incorporated, La Jolla, CA, USA).

Data set [4] concerns locomotor activity of wild-type and FABP1-KO mice. Put plainly: Home-cage spontaneous locomotor activity (photobeam system). Type of data set: in vivo, mouse. Particulars: THC 10 mg/kg i.p., 12 hour period, both sexes. As for the experimental part: (§1) Hypothermia and spontaneous locomotor activity were assessed over a 12 hour period following a single intraperitoneal (i.p.) injection of 10 mg/kg THC or vehicle (1:1:18 DMSO:Cremophor-EL:saline) to naïve mice. This dose was selected because it produces submaximal cannabimimetic effects and potentiation of THC effects is unlikely to be hampered by a ceiling effect[33],[34]. All mice were kept on a 12/12 hour light/dark cycle and THC was administered immediately prior to the dark phase to control for circadian effects. […] Therefore, in the present study THC pharmacodynamics were independently assessed in mice of both genders.
Locomotor activity was measured by the home-cage photobeam activity system (San Diego Instruments, San Diego, CA, USA). In this system each mouse home-cage was surrounded by a 4 × 8 photobeam array that detected and recorded movements in the X and Y directions. The animals were first conditioned to the cages in the testing room for one week to avoid novelty induced changes in locomotor activity. THC or vehicle were injected 10 minutes prior to the onset of the dark cycle and motility data was recorded over the next 12 hour period.

For data set [5], the system named is body temperature of wild-type and FABP1-KO mice. Put plainly: THC-induced hypothermia (implanted iButton Thermocron core temperature). Type of data set: in vivo, mouse. Particulars: THC 10 mg/kg i.p. As for the experimental part:
as §1
Mice were anesthetized with an i.p. injection of a surgical mixture of ketamine (100 mg/kg) and xylazine (10 mg/kg). Thermocron iButton® (Dallas Semiconductor Company, Dallas, TX, USA) temperature data loggers were sterilized with 70% ethanol and surgically implanted into the abdominal cavities. The mice were permitted to recover from surgery for at least one week prior to being subjected to any experiments. The factory calibrated thermocrons were programmed to record temperature measurements every three minutes with 0.5 °C accuracy and 0.0625 °C precision.

Setting [6] is: mouse, plasma, ip, 10 mg/kg, AUC, FABP1-KO mice.
The mark [7] stands for this setting: mouse, plasma, ip, 10 mg/kg, AUC, wild-type mice.
The mark [8] stands for this setting: mouse, plasma, ip, 10 mg/kg, Cmax, FABP1-KO mice.
The mark [9] stands for this setting: mouse, plasma, ip, 10 mg/kg, Cmax, wild-type mice.

Regarding `CCCCCc1cc(O)c2c(c1)OC(C)(C)C1CCC(CO)=CC21` (stereo not shown) [11-OH-THC, 11-hydroxy-Δ^9-tetrahydrocannabinol], in data set [1] (brain and plasma), the “time remaining at detectable levels longer in FABP1-KO than in wild-type” value lay within 1 to 2 h. The Cmax in data set [1] (brain, FABP1-KO mice) came out at 243.6 ± 114.3 pmol/g; in data set [1] (brain, wild-type mice), 484.4 ± 207.8 pmol/g; in data set [1] (setting [8]) it was 50.6 ± 11.8 ng/mL; in data set [1] (setting [9]) it was 29.5 ± 6.17 ng/mL. The “M/P: metabolite to parent (THC) ratio (AUCm/AUCp)” value is listed as 0.169 in data set [1] (brain, FABP1-KO mice); 0.918 in data set [1] (brain, wild-type mice); 0.0044 in data set [1] (plasma, FABP1-KO mice); 0.0052 in data set [1] (plasma, wild-type mice). For the same molecule, the AUC in data set [1] (brain, FABP1-KO mice) came to 1244 ± 314.6 pmol·h/g; in data set [1] (brain, wild-type mice), 1327 ± 329.3 pmol·h/g; in data set [1] (setting [6]), 112 ± 18.4 ng·h/mL; in data set [1] (setting [7]) it was 59.4 ± 14.6 ng·h/mL. In data set [2], the inhibition constant Ki came to 7.12 ± 0.79 µM.

As to `CCCCCCC(C)(C)c1cc(O)c2c(c1)OC(C)(C)[C@@H]1CC=C(C(=O)O)C[C@@H]21` [AJA, ajulemic acid], in data set [2], affinity was put at a Ki of 26 ± 3.8 µM and the “maximal displacement of the fluorescent probe DAUDA” value (“maximal displacement” below) was “fully displace DAUDA”.

On to `C=C(C)[C@@H]1CCC(C)=C[C@H]1c1c(O)cc(CCCCC)cc1O` [CBD, cannabidiol], for which, in data set [2] (FABP1 3 μM, DAUDA 500 nM, 25 °C, 20 min, pH 7.6, read-out: Ki (DAUDA displacement from FABP1)), the Ki stood at 3.95 ± 0.65 µM. In addition, in data set [2], the “maximal displacement” value is about 50%.

With `CN(C)c1cccc2c(S(=O)(=O)NCCCCCCCCCCC(=O)O)cccc12` [DAUDA, 11-(Dansylamino)unadecanoic acid], the equilibrium dissociation constant (Kd) in data set [3] stood at 1.07 ± 0.17 µM.

As for `CCCCCCCCCCCCCCCC(=O)NCCO` [PEA, Palmitoylethanolamide], the “remaining DAUDA fluorescence” value in data set [2] (at 50 µM) is 101.8 ± 3.3 % fluorescence.

Turning to `CCCCCc1cc(O)c2c(c1)OC(C)(C)[C@@H]1CCC(C)=C[C@@H]21` [THC, ∆^9-tetrahydrocannabinol], the Cmax stood at 881.9 ± 574.1 pmol/g in data set [1] (brain, FABP1-KO mice); 531.0 ± 71.35 pmol/g in data set [1] (brain, wild-type mice); 34800 ± 2000 ng/mL in data set [1] (setting [8]); 13600 ± 2620 ng/mL in data set [1] (setting [9]). Also, the AUC came to 7363 ± 949.0 pmol·h/g in data set [1] (brain, FABP1-KO mice); 1446 ± 411.7 pmol·h/g in data set [1] (brain, wild-type mice); 25200 ± 7330 ng·h/mL in data set [1] (setting [6]); 11500 ± 2080 ng·h/mL in data set [1] (setting [7]). Also, the “increase in the brain AUC, FABP1-KO compared to WT” value in data set [1] (brain) is on record as ~ 6 fold. Further, the “effect on spontaneous home-cage motility” value in data set [4] was “significant decrease in overall motility”. For the same molecule, the inhibitory constant (Ki) in data set [2] came out at 2.93 ± 0.27 µM. Also, the “maximal displacement” value in data set [2] is about 50%. Moreover, the “maximum mean body temperature change” value in data set [5] (FABP1-KO females) was −8.1 °C; in data set [5] (FABP1-KO males) it was −7.4 °C; in data set [5] (WT females), −4.8 °C; in data set [5] (WT males), −4.8 °C.

On to `CCCCCc1cc(O)c2c(c1)OC(C)(C)C1CCC(C(=O)O)=CC21` (stereo not shown) [THC-COOH, 11-nor-9-carboxy-Δ^9-tetrahydrocannabinol], for which the Cmax in data set [1] (brain, FABP1-KO mice) stood at 50.02 ± 3.16 pmol/g; in data set [1] (brain, wild-type mice), 58.33 ± 1.21 pmol/g; in data set [1] (setting [8]) it was 78.7 ± 2.26 ng/mL; in data set [1] (setting [9]), 87.1 ± 5.21 ng/mL. Moreover, the “M/P: metabolite to parent (THC) ratio (AUCm/AUCp)” value in data set [1] (brain, FABP1-KO mice) worked out at 0.071; in data set [1] (brain, wild-type mice), 0.251; in data set [1] (plasma, FABP1-KO mice), 0.0215; in data set [1] (plasma, wild-type mice) it was 0.0440. Further, the AUC in data set [1] (brain, FABP1-KO mice) came to 522.6 ± 194.4 pmol·h/g; in data set [1] (brain, wild-type mice), 362.8 ± 36.94 pmol·h/g; in data set [1] (setting [6]) it was 544 ± 21.2 ng·h/mL; in data set [1] (setting [7]), 506 ± 51.4 ng·h/mL. In addition, the “lower THC-COOH/THC ratio (AUCTHC-COOH/AUCTHC) in FABP1-KO brains vs WT” value in data set [1] (brain) is recorded as 3–4 fold. Moreover, the “∆tmax (later maximal level in FABP1-KO brain vs WT)” value in data set [1] (brain) came out at 4 h. In addition, the inhibition constant Ki in data set [2] worked out at 11.2 ± 0.7 µM.

Consider `CCCCCCCC/C=C\CCCCCCCC(=O)O` [oleic acid], for which, in data set [2] (at 10 µM), the DAUDA displacement is reported as 96.5 ± 0.15 % displacement.
